Experiment in all cases: growth of human tumour cells (NCI), 48 h
In assay [1] the test system is SW-620 colon.
In assay [2] the test system is IGROV1 ovarian.
Assay [3] concerns UO-31 renal.
Assay [4] deals with SF-539 CNS.
In assay [5] the test system is NCI-H460 lung.
For assay [6], the system named is A498 renal.
The subject of assay [7] is M14 melanoma.
In assay [8] the test system is U251 CNS.
For assay [9], the system named is SF-268 CNS.
Assay [10] concerns EKVX NSCLC.

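Protocol summary: plate cells (96-well), add compound at 5 concentrations, incubate 48 h, interpolate endpoints linearly. GI50 is the concentration that inhibits growth by half. Definition used: TGI = concentration required for complete inhibition of growth.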

Consider `C[C@@H]1C=C2C(=O)O[C@@H]3CC[C@H](C1)[C@]23O`, for which the TGI in [1] was determined as 12.8 µM; in assay [2] it was 10.4 µM; in [3], 16.7 µM; in [4] it was 11.9 µM; in assay [5], 32 µM; in [6] it was 38.3 µM. Also, the values for the TGI in assay [7], in assay [8] and in [9] were 22.8 µM, 27.5 µM and 30.4 µM, respectively. Also, the GI50 is 2.87 µM in assay [2]; 3.74 µM in assay [3]; 3.18 µM in assay [4]; 4.28 µM in assay [7]; 13.9 µM in assay [8]; 5.24 µM in assay [9].
For the compound `C1=Cc2nc1c(-c1ccncc1)c1ccc([n-]1)c(-c1ccncc1)c1nc(c(-c3ccncc3)c3ccc([n-]3)c2-c2ccncc2)C=C1.[Zn+2]`, the TGI in assay [1], in [2], in assay [3], in [4], in assay [10] and in assay [5] was more than 100 µM throughout. The TGI in assay [7], in assay [8] and in assay [9] was more than 100 µM throughout.
Turning to `COC(=O)C(Cl)=C1CC1`, the TGI was 37.1 µM in [1]; more than 100 µM in assay [2]; 89.9 µM in assay [3]; 69.1 µM in [4]; more than 100 µM in assay [5]; more than 100 µM in assay [6]. Further, the TGI in [7] was 30.5 µM; in assay [9] it was more than 100 µM.
With `CC1C=CC(=O)C(n2cc(F)c(=O)[nH]c2=O)O1` (centres undefined), the TGI in assay [1] is 36.7 µM; in [2] it was 45.2 µM; in assay [3] it was 30 µM; in [4], 31.2 µM; in [10], 50.9 µM; in assay [5] it was 54.2 µM. The TGI was determined as 36.7 µM in assay [7] and 29.5 µM in assay [8].
With `Cn1cc(C2=C(c3cn(CCN)c4ccccc34)C(=O)NC2=O)c2ccccc21`, the GI50 in [1] was 6.25 µM; in assay [2], 9.3 µM; in [3] it was 3.7 µM; in [4] it was 4.83 µM; in [5], 7.54 µM; in assay [6], 7.79 µM. Also, the GI50 is 6.15 µM in assay [7], 5.61 µM in [8] and 7.41 µM in [9]. Moreover, the TGI is more than 20.1 µM in assay [1]; more than 21 µM in [2]; 20.6 µM in assay [3]; 13.9 µM in assay [4]; more than 25 µM in [5]; 17.6 µM in [6]. The TGI in [7] was 19.5 µM; in [8], more than 20.5 µM; in assay [9], 20.4 µM.
As for `Cc1ccc(C)c(-c2csc(Nc3ccc(C)c(C)c3)n2)c1`, the GI50 in [1] was more than 100 µM; in [2], 62.8 µM; in assay [3], more than 100 µM; in [4], 44.6 µM; in [8], 52.9 µM; in [9], 29.8 µM. For the same compound, the TGI in [1], in assay [2], in assay [3], in assay [4], in assay [8] and in assay [9] was more than 100 µM throughout.
Consider `COc1cc(C(=O)c2cc3c(cc2C)OCO3)cc(OC)c1OC`, for which the GI50 in [1] is 0.0608 µM; in assay [2], 0.371 µM; in [3], 0.624 µM; in [4], 0.0617 µM; in assay [5], 0.124 µM; in assay [6], 0.0322 µM. Further, the GI50 in [7] was 0.0671 µM; in [8] it was 0.158 µM; in assay [9], 0.36 µM. The TGI in assay [1] is more than 100 µM; in assay [2], more than 100 µM; in assay [3], more than 100 µM; in [4] it was 0.376 µM; in [5], more than 33.2 µM; in [6], 0.199 µM. The TGI in assay [7], in assay [8] and in [9] was more than 100 µM in each case.
On to `COc1cc2nc(Nc3cccc(F)c3)nc(Nc3cc(C)[nH]n3)c2cc1OC`, for which the GI50 in [1] is 1.84 µM; in [3] it was 1.77 µM; in assay [4], 1.78 µM; in assay [10], 1.75 µM; in [5], 1.83 µM; in assay [7] it was 1.64 µM. Moreover, the GI50 in assay [8] and in [9] was 1.82 µM throughout. The TGI in assay [1] was 3.75 µM; in assay [3], 3.29 µM; in assay [4], 3.18 µM; in assay [10], 3.41 µM; in assay [5], 3.74 µM; in assay [7], 3.22 µM. Also, the TGI turned out to be 3.73 µM in assay [8] and 3.46 µM in assay [9].
Take `Nc1c(C(=O)Nc2ccccc2Cl)sc2nc3c(cc12)CCCCCC3`: the GI50 in assay [1] is 3.14 µM; in assay [3], 2.19 µM; in assay [4], 2.65 µM; in [5], 3.32 µM; in assay [6] it was 7.73 µM; in [7] it was 2.25 µM. Besides, the GI50 in assay [8] was 2.99 µM; in assay [9], 3.44 µM. Further, the TGI in assay [1] is more than 100 µM; in assay [3], 5.01 µM; in assay [4] it was 8.12 µM; in [5] it was 13.9 µM; in assay [6], more than 100 µM; in assay [7], 95.1 µM. In addition, the TGI in assay [8] was found to be 21.3 µM; in assay [9], 16.7 µM.
Consider `COc1ccc([N+](=O)[O-])c(S(=O)(=O)c2ccc(Cl)cc2)n1`, for which the GI50 was 2.06 µM in [1]; 12.2 µM in assay [2]; 2.97 µM in [3]; 3.39 µM in assay [4]; 14.6 µM in [5]; 3.05 µM in assay [7]. Further, the GI50 is 8.69 µM in [8] and 4.57 µM in assay [9]. Besides, the TGI in assay [1] stood at 4.65 µM; in assay [2], 31.3 µM; in assay [3] it was 10.2 µM; in assay [4], 12.3 µM; in [5], 30.1 µM; in assay [7], 10.1 µM. Besides, the TGI is 21.6 µM in [8] and 17.8 µM in assay [9].
With `CCCCCCCC/C=C\CCCCCCCC(=O)NCCN(CCN)C(=O)CCCCCCC/C=C\CCCCCCCC`, the TGI in [1], in assay [2], in [3], in assay [5], in assay [6] and in assay [7] was more than 100 µM throughout. The TGI in assay [8] and in assay [9] was more than 100 µM each time.
Regarding `Cc1cc(Cl)ccc1N=C1NC(=O)C(CC(=O)Nc2ccc(Cl)cc2Cl)S1` (centres undefined), the TGI in assay [1], in assay [2], in assay [3], in assay [4], in [10] and in assay [5] was more than 100 µM in each case. Moreover, the TGI in assay [7], in assay [8] and in [9] was more than 100 µM each time.
Turning to `COc1ccc(C(c2c(O)c3ccccc3n(C)c2=O)c2c(O)c3ccccc3n(C)c2=O)cc1`, the TGI in [1] was more than 100 µM; in assay [2], more than 100 µM; in assay [3], more than 100 µM; in [4], 63.3 µM; in assay [10], more than 100 µM; in assay [5], more than 100 µM. In addition, the TGI is more than 100 µM in assay [7], 44.2 µM in assay [8] and more than 100 µM in [9].
As to `COc1ccc(/C(C)=N/OC(=O)c2c(-c3ccccc3Cl)noc2C)cc1CN1CCOCC1`, the TGI in assay [1] was more than 100 µM; in [2], 65.6 µM; in [3], 22.3 µM; in assay [4], 56.7 µM; in assay [5], more than 100 µM; in assay [7] it was 28 µM. Also, the TGI in assay [8] is 97.7 µM; in [9], more than 100 µM.
For the compound `O=c1c2ccccc2c2nc3ccccc3nc2n1C1CCCCC1`, the TGI in assay [1], in [2], in assay [3], in [4], in [10] and in [8] was more than 100 µM in each case. The compound further registered a TGI in assay [9] of more than 100 µM.
As for `O=C1C(=O)C(Br)(Br)C(Br)=C1Br`, the TGI in assay [1] was 31.9 µM; in assay [2], more than 100 µM; in assay [3] it was 33.5 µM; in assay [4] it was 33.4 µM; in assay [10], 54.8 µM; in assay [5], more than 100 µM. Moreover, the TGI worked out at 32.4 µM in assay [7] and 79.8 µM in assay [8].
In the case of `O=[N+]([O-])c1nccn1COCCF`, the TGI in assay [1], in [2], in assay [3], in assay [4], in assay [10] and in assay [5] was more than 100 µM throughout. The TGI in assay [7], in [8] and in [9] was more than 100 µM each time.

For the origin of these results see PubChem BioAssay (NCI).
